What all share (assay type): cell-based
One assay has as its system Panc-1. Briefly: MTT cell viability, Panc-1. The following applies: Homo sapiens, 96 h; Pancreatic cancer cells Panc-1; 4 days incubation. An excerpt:
(§1) The ability of the flurbiprofen analog compounds of the invention to inhibit cancer cell growth and survival (viability) in a variety of cancer lines was examined in a standard MTT assay for cell viability, as detailed in Example 2.
(§2) Similar results were obtained for the effect of the B1031 compound on the 14 pancreatic tumor cells lines shown in Table 3 below, where the dose dependent effect of the compound on survival of the pancreatic cancer cell lines is shown in FIG. 5.
(§3) The studies reported in Tables 1-3 above were carried out by incubating the cells in the test compound for four days, under standard cell-culture conditions, and measuring cell survival on day 5 (see Example 2).
(§4) Cell growth and survival following treatment with N—[(S)-2-Fluoro-α-methyl-4-biphenylacetyl]-[L-(4-phenylphenyl)alanine]-N-(2,2,6,6-tetramethyl-4-piperidinyl)amide (GCBH-110=B1031; (S)-Fmba-L-Bip-Atmp) were measured by a rapid colorimetric assay based on the tetrazolium salt MTT (3-(4,5-dimethylthiazol-2-yl)-2,5-diphenyl tetrazolium bromide) (Mosmann, J. Immunol. Methods 65: 55-63, 1983, with minor modifications).
(§5) Briefly, approximately 1,000-5,000 cancer cells from 15 different cancer cells lines were plated in 100 μL of growth medium in 96-well flat-bottomed microtiter plates. Cells were incubated overnight to allow recovery. […] Absorbance was immediately determined using a scanning multiwell plate reader.

A further assay relates to H460. Briefly: MTT cell viability, H460. As to conditions: Homo sapiens, NCI-H460, 96 h; Large Cell lung cell line H460; 4 days incubation. The protocol: as §1, §3, §4
(§6) Briefly, approximately 1,000-5,000 cancer cells from 15 different cancer cells lines were plated in 100 μL of growth medium in 96-well flat-bottomed microtiter plates. Cells were incubated overnight to allow recovery. Compounds to be tested were added to the cells in triplicate in a range of concentrations and the cells were incubated at 37° C., 5% CO2, with 100% humidity. Control cells were treated in the same way without antagonists. […] Absorbance was immediately determined using a scanning multiwell plate reader.

The subject of a further assay is SHP77. Description: MTT cell viability, SHP77. As to conditions: SCLC lung cell line SHP77, 4 days incubation. The protocol: as §1, §3, §4, §6
In a further assay the test system is 1483. Description: MTT cell viability, 1483. The following applies: Head and neck cancer cell line 1483. The protocol:
as §1
(§7) A similar study was conducted on 14 […] cancer cell lines, identified in Table 2.
as §4
(§8) Briefly, approximately 1,000-5,000 cancer cells from 15 different cancer cells lines were plated in 100 μL of growth medium in 96-well flat-bottomed microtiter plates. Cells were incubated overnight to allow recovery. Compounds to be tested were added to the cells in triplicate in a range of concentrations and the cells were incubated at 37° C., 5% CO2, with 100% humidity. Control cells were treated in the same way without antagonists. […] Plates were incubated for 4 days, allowing sufficient time for cell replication and compound-induced cell death to occur. […] Absorbance was immediately determined using a scanning multiwell plate reader. […]

The next assay concerns MSK922. Description: MTT cell viability, MSK922. The following applies: Head and neck cancer cell line MSK922. The protocol:
as §1, §7, §4, §8

For assay [1], the system named is head and neck cancer cell lines. Briefly: MTT cell viability, panel of head and neck cancer cell lines. The protocol: as §1, §7, §4
Briefly, approximately 1,000-5,000 cancer cells from 15 different cancer cells lines were plated in 100 μL of growth medium in 96-well flat-bottomed microtiter plates. Cells were incubated overnight to allow recovery. Compounds to be tested were added to the cells in triplicate in a range of concentrations and the cells were incubated at 37° C., 5% CO2, with 100% humidity. Control cells were treated in the same way without antagonists. […] Plates were incubated for 4 days, allowing sufficient time for cell replication and compound-induced cell death to occur. On day 5, 25 μL of a 2 mg/mL solution of MTT (Sigma) dissolved in RMPI-1640 was added to each well. The plate was incubated for 4 h at 37° C. The supernatant liquid was removed and the blue formazan complex was dissolved by adding 100 μL of 0.02 N HCl in 75% isopropanol to all wells. Absorbance was immediately determined using a scanning multiwell plate reader.
Similarly, cell growth and survival following treatment with GCBH-110=B1031 was tested using the same MTT assay in 6 head and neck cancer cell lines. GCBH-110=B1031 caused 50% cell death at concentrations between about 0.3 μM and about 2 μM under these conditions (FIG. 3). […] GCBH-110=B1031 caused 50% cell death at concentrations between about 0.2 μM and about 0.8 μM under these conditions.

The next assay relates to L35. Description: MTT cell viability, L35. The following applies: Pancreatic cancer cell, 96 h; Pancreatic cancer cells L35; 4 days incubation.
Excerpt: as §1, §2, §3, §4, §5

In a further assay the test system is Capan-2. Description: MTT cell viability, Capan-2. As to conditions: Homo sapiens, 96 h; Pancreatic cancer cells Capan-2; 4 days incubation.
Excerpt: as §1, §2, §3, §4, §5

For a further assay, the system named is H1648. Briefly: MTT cell viability, H1648. The following applies: Homo sapiens, NCI-H1648, 96 h; SCLC lung cell line H1648; 4 days incubation. The protocol:
as §1, §3, §4, §6

For a further assay, the system named is UMSCC22A. Briefly: MTT cell viability, UMSCC22A. The following applies: Head and neck cancer cell line UMSCC22A. The protocol:
as §1, §7, §4, §8

The test system of the next assay is H3255. Briefly: MTT cell viability, H3255. The following applies: Adenocarcinoma lung cell line H3255, 4 days incubation. The protocol: as §1, §3, §4, §6
A further assay concerns UMSCC2. Description: MTT cell viability, UMSCC2. The following applies: UM-SCC2; Head and neck cancer cell line UMSCC2. The protocol:
as §1, §7, §4, §8

The subject of another assay is WM239a. Description: MTT cell viability, WM239a. The following applies: Melanoma cell line WM239a.
Excerpt: as §1
The results for the several cell lines above were also consistent with IC50 values measured for two melanoma cell lines shown in Table 4 below.
as §4, §6

A further assay relates to CaLu3. Briefly: MTT cell viability, CaLu3. As to conditions: Homo sapiens, Calu-3, 96 h; Adenocarcinoma lung cell line CaLu3; 4 days incubation. The protocol:
as §1, §3, §4, §6

A further assay relates to H520. Briefly: MTT cell viability, H520. The following applies: Homo sapiens, NCI-H520, 96 h; Squamous lung cell line H520; 4 days incubation. The protocol: as §1, §3, §4, §6
In a further assay the test system is H3225a. Briefly: MTT cell viability, H3225a. As to conditions: 96 h; Adenocarcinoma lung cell line H3225a; 4 days incubation. The protocol: as §1, §3, §4, §6
The next assay has as its system H865. Description: MTT cell viability, H865. As to conditions: 96 h; SCLC lung cell line H865; 4 days incubation. The protocol:
as §1, §3, §4, §6

Another assay deals with H322C1. Briefly: MTT cell viability, H322C1. As to conditions: 96 h; Adenocarcinoma lung cell line H322C1; 4 days incubation. The protocol:
as §1, §3, §4, §6

A further assay deals with H719. Description: MTT cell viability, H719. As to conditions: 96 h; SCLC lung cell line H719; 4 days incubation. The protocol: as §1, §3, §4, §6

The record followed here is patent US8575170B2, “Flurbiprofen analogs and methods of use in treating cancer” (The Regents of the Unversity of Colorado, a body corporate, priority 2010, dated 2013).

pIC50: −log10 of the molar value. Where two headings read alike, the source gives them in different places.

`C[C@H](C(=O)N[C@@H](Cc1ccc(-c2ccccc2)cc1)C(=O)NC1CC(C)(C)NC(C)(C)C1)c1ccc(-c2ccccc2)c(F)c1` [GCBH-110, N—[(S)-2-Fluoro-α-methyl-4-biphenylacetyl]-[L-(4-phenylphenyl)alanine]-N-(2,2,6,6-tetramethyl-4-piperidinyl)amide]: the pIC50 in the assay with Panc-1 is 6.09; with H460 it was 6.32; in the assay on SHP77 (Homo sapiens, SHP77, 96 h) it was 6.30; with SHP77 (listed as B1031), 6.28; with 1483 it was 6.52; in the assay on MSK922, 6.39. For the same compound, the pIC50 in assay [1] (6 head and neck cancer cell lines, FIG. 3, read-out: concentrations causing 50% cell death) was 5.70 to 6.52; in assay [1] (another panel of head and neck cancer cell lines, longer treatment exposure, FIG. 4, read-out: concentrations causing 50% cell death) it was 6.10 to 6.70; in assay [1] (majority of the head and neck cell lines, read-out: IC50 value, majority of the cell lines), > 6.30; in assay [1] (span over 14 head and neck cancer cell lines, Table 2, FIGS. 3 and 4, read-out: IC50 values) it was 5.70 to 6.70; in the assay on L35, 6.10; in the assay with Capan-2, 5.82. Also, the pIC50 with H1648 was 6.55; in the assay on UMSCC22A it was 6.37; in the assay with H3255 (listed as B1031) it was 6.05; in the assay with H3255 (Homo sapiens, NCI-H3255, 96 h) it was 6.04; with UMSCC2 it was 6.02; with WM239a it was 6.64. Besides, the pIC50 with CaLu3 was 5.89; in the assay on H520 it was 6.60; in the assay with H3225a it was 6.35; in the assay with H865, 6.44; in the assay with H322C1 it was 6.89; with H719 it was 5.97.
